Data reported in PubChem BioAssay AID602217 (Sanford-Burnham Center for Chemical Genomics, 2012).
The source made the active and inactive calls.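 Rule for the calls: active = IC50 at or below a set limit; inactive = the rest.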

System: HL-1 cardiomyocytes, 2-deoxyglucose injury, ATPLite luminescence, 2 h
Experiment: 2-DG-induced HL-1 ATP loss suppression – cell-based, ATPLite luminescence, dose response (AID 602217);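 note: cells kept in glucose-free DMEM during the 2-deoxyglucose injury; potency of protection where actives preserve ATP signal against 2-deoxyglucose stress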

Row | SMILES | IC50
1 | COc1cc(NC(=O)c2ccco2)c(OC)cc1NC(=O)c1cc(OC)c(OC)c(OC)c1 | 18.1 µM
2 | COc1cc(-c2cc3nc(NCCOc4ccccc4)ccn3n2)cc(OC)c1OC | > 79 µM (inactive)
3 | NC(=O)c1nsc(C(=O)N(c2ccccc2F)C(C(=O)NCc2ccccc2)c2ccc(O)cc2)c1N (stereo not drawn) | 11 µM
4 | COc1ccccc1NC(=O)c1cc(-c2cc(OC)c(OC)c(OC)c2)nc2ccccc12 | 14.3 µM
5 | CCOc1ccccc1Nc1nnc(SCc2nnc(-c3cc(OC)c(OC)c(OC)c3)o2)s1 | 14.6 µM
6 | CC(=O)Nc1ccc(C(=O)N/N=C/c2ccccc2OC(=O)c2ccc(Cl)cc2)cc1 | > 79 µM (inactive)
7 | COc1ccc(-n2cc(-c3ccccc3)c3c(N4CCOCC4)ncnc32)cc1 | 4.4 µM
8 | COc1cc(C(=O)N/N=C/c2sc(N3CCOCC3)nc2-c2ccccc2)cc(OC)c1OC | 22.6 µM (inactive)
9 | O=C(CCCN1C(=O)c2cccc3cccc(c23)C1=O)N1CCN(c2ccccc2O)CC1 | 27.4 µM (inactive)
10 | Cc1ccc(C)c(NC(=O)C(Sc2nc3ccccc3c(=O)n2CC(C)C)c2ccccc2)c1 (stereo not drawn) | 1.14 µM
11 | Cn1c(=O)c2[nH]c(NN=Cc3cccc(Br)c3)nc2n(C)c1=O | 17.9 µM
12 | COc1cc(-c2cc(NC(C)=O)c3ncc(-c4ccc(F)cc4)n3c2)cc(OC)c1OC | > 79 µM (inactive)
13 | COc1cc(C(=O)Nc2nc(-c3cccs3)cs2)cc(OC)c1OC | 16.9 µM
14 | CC(=O)Nc1ccc(S(=O)(=O)N(Cc2cccnc2)Cc2cc3ccccc3[nH]c2=O)cc1 | 30.8 µM (inactive)
15 | COc1cc(OC)cc(C(=O)Nc2ccc(C(=O)Nc3ccccc3OC)cc2)c1 | > 79 µM (inactive)
16 | O=C(NCC(=O)N(Cc1ccccc1)C(C(=O)NC1CCCCC1)c1ccco1)c1ccco1 (stereo not drawn) | > 79 µM (inactive)
17 | COc1ccc(C(=O)Nc2cccc(NC(=O)c3ccc(OC)c(OC)c3)n2)cc1OC | 11.2 µM
18 | O=C(Nc1ccccc1)c1nc[nH]c1C(=O)NCCCCNC(=O)c1[nH]cnc1C(=O)Nc1ccccc1 | 6.36 µM
19 | C=CC[C@@H](CC(=O)NCCO)C(=O)NC[C@H](OC(=O)[C@@H](CC=C)Cc1ccc(F)cc1)c1ccccc1 | 42.7 µM (inactive)
20 | COc1nc(N/N=C/c2cc3c(cc2Br)OCO3)nc(N2CCOCC2)n1 | > 79 µM (inactive)
21 | CCOc1ccc(-n2cc(-c3ccccc3)c3c(N4CCOCC4)ncnc32)cc1 | 7.65 µM
22 | CN(C(=O)c1sc2nc(N3CCOCC3)c3c(c2c1N)CCCC3)c1ccccc1 | > 79 µM (inactive)

Row | SMILES | IC50
23 | CCOc1cc(/C=C/c2ccc3cccc([N+](=O)[O-])c3n2)ccc1OCC(=O)N(C)C | 40.3 µM (inactive)
24 | NC(=O)c1nsc(C(=O)N(Cc2ccco2)C(C(=O)NCc2ccccc2)c2ccc(O)cc2)c1N (stereo not drawn) | 32.2 µM (inactive)
25 | O=C(Nc1ccccc1)c1nc[nH]c1C(=O)NCCNC(=O)c1[nH]cnc1C(=O)Nc1ccccc1 | 4.82 µM
26 | NC(=O)c1nsc(C(=O)N(c2ccccc2)C(C(=O)NCc2ccc(F)cc2)c2ccc(O)cc2)c1N (stereo not drawn) | 19.8 µM
27 | O=C(CNC(=O)c1nc[nH]c1C(=O)NCC(=O)OCc1ccccc1)OCc1ccccc1 | > 79 µM (inactive)
28 | COc1ccc2c(c1OC)C(=O)N1c3ccccc3C(=O)N(c3ccccc3)C21 (stereo not drawn) | 11 µM
29 | CC(C)(C)NC(=O)COC(=O)c1c2c(nc3ccccc13)CCC2 | 23.7 µM (inactive)
30 | CCOC(=O)c1c2c3c(cccc3n(C)c1=O)C(=O)c1ccccc1-2 | > 79 µM (inactive)
31 | COCCN1Cc2cccc(C(=O)Nc3cccc(-c4nc5ccccc5[nH]4)c3)c2C1=O | 8.5 µM
32 | O=C(Nc1cccc(NC(=O)c2ccc([N+](=O)[O-])o2)c1)c1ccco1 | > 79 µM (inactive)
33 | COc1ccc(-n2c(/C=C/c3ccc(O)c(OC)c3)nc3ccccc3c2=O)cc1 | 21.3 µM (inactive)
34 | COc1cc(NC(=O)c2cc3nc(-c4ccccc4)cc(-c4ccccc4)n3n2)cc(OC)c1OC | 23.9 µM (inactive)
35 | COc1ccc(-c2ccc3c(c2)S(=O)(=O)c2cccc(C(=O)NC[C@@H]4CCCO4)c2C3=O)cc1OC | > 79 µM (inactive)
36 | CC(=O)Nc1ccc(Nc2nc(-c3sc(NC(C)=O)nc3C)cs2)cc1 | 43.6 µM (inactive)
37 | Cc1ccccc1N(C(=O)c1snc(C(N)=O)c1N)C(C(=O)NCc1ccccc1)c1ccc(O)cc1 (stereo not drawn) | > 79 µM (inactive)
38 | COc1cccc(C(=O)Nc2c(C(N)=O)oc3ccccc23)c1 | 33.6 µM (inactive)
39 | CCCNC(=O)c1ccc(N2CCC3(CC2)CC(c2ccccc2)=NO3)c(NC(=O)c2ccco2)c1 | 10.3 µM
40 | COc1cccc(Nc2nc3ccccc3n3cnnc23)c1 | > 79 µM (inactive)
41 | COc1cc(C(=O)N/N=C/c2ccc(OC(=O)c3ccccc3)c(OC)c2)ccc1O | 37.6 µM (inactive)
42 | O=C(COC(=O)c1ccccc1C(=O)OCC(=O)NCCc1c[nH]c2ccccc12)NCCc1c[nH]c2ccccc12 | > 79 µM (inactive)
43 | COc1ccc(-c2cc(C(=O)N(C)Cc3nc4ccccc4c(=O)[nH]3)c3ccccc3n2)cc1OC | 21.9 µM (inactive)
44 | CCCn1nc(C(=O)Nc2nc(-c3ccccn3)cs2)c2ccccc2c1=O | > 79 µM (inactive)

Row | SMILES | IC50
45 | O=C(CNC(=O)c1[nH]cnc1C(=O)NC(c1ccccc1)c1ccccc1)OCc1ccccc1 | > 79 µM (inactive)
46 | COc1cc(-c2cc3nc(NCCc4ccc(S(N)(=O)=O)cc4)ccn3n2)cc(OC)c1OC | 48.7 µM (inactive)
47 | Cc1cccc(NC(=O)c2oc3ccc(S(=O)(=O)N4CCOCC4)cc3c2C)c1C | 30.5 µM (inactive)
48 | CCn1nc(C(=O)Nc2nc(-c3ccccn3)cs2)c2ccccc2c1=O | 13 µM
49 | COc1cc(C(=O)N/N=C/c2ccc(OC(=O)c3cccc(C)c3)c(OC)c2)ccc1O | > 79 µM (inactive)
50 | COc1cc(C(=O)NCC(=O)N/N=C/c2ccc(-c3cccc([N+](=O)[O-])c3)o2)cc(OC)c1OC | > 79 µM (inactive)
51 | Cc1nn(-c2ccccc2)c(N2CCCC2)c1/C=N/NC(=O)c1cc(-c2ccccn2)nc2ccccc12 | 19.5 µM
52 | CC(=O)Nc1cc(-c2ccc(C(=O)NC3CC3)cc2)cn2c(-c3cccc(C(C)=O)c3)cnc12 | 12.7 µM
53 | Nc1c(C(=O)N/N=C/c2cccnc2)oc2nc(-c3ccco3)cc(-c3ccco3)c12 | > 79 µM (inactive)
54 | COCCCN(Cc1ccco1)C(=O)Cn1ncc2c([nH]c3ccccc32)c1=O | 41.4 µM (inactive)
55 | CCOc1ccc(C(C(=O)NC2CCCC2)N(C(=O)c2snc(C(N)=O)c2N)c2cccc(O)c2)cc1 (stereo not drawn) | 13.1 µM
56 | COc1ccc2[nH]c(=O)c(CN(Cc3cccnc3)S(=O)(=O)c3ccccc3F)cc2c1 | 18.2 µM
57 | O=C(c1cc(=O)[nH]c2ccccc12)N1CCN(S(=O)(=O)c2ccc(Cl)cc2)CC1 | 58.3 µM (inactive)
58 | CC(=O)c1ccc(-c2cnc3c(NC=O)cc(-c4cccc(NS(C)(=O)=O)c4)cn23)cc1 | > 79 µM (inactive)
59 | COc1ccc(-c2cc(-c3nnc(COC(=O)C4CC4)o3)c3ccccc3n2)cc1OC | 62.9 µM (inactive)
60 | COc1ccc(Nc2nc(C(=O)N3CCc4cc(OC)c(OC)cc4C3)cs2)cc1 | 42 µM (inactive)
61 | O=C(c1ccc(-c2nc3ccccc3s2)o1)N1CCN(c2ccccc2O)CC1 | > 79 µM (inactive)
62 | CCOC(=O)C1CCN(c2cc3c(cc2NC(=O)c2ccccc2)n(C)c(=O)n3C)CC1 | > 79 µM (inactive)
63 | CC(C)c1ccccc1NC(=O)COC(=O)c1c2c(nc3ccccc13)CCN(Cc1ccccc1)C2 | > 79 µM (inactive)
64 | O=CNc1cc(-c2ccc(C(=O)NC3CC3)cc2)cn2c(-c3ccccc3)cnc12 | 40.9 µM (inactive)
65 | Cn1c(=O)c2[nH]c(NN=Cc3ccc(Br)cc3)nc2n(C)c1=O | 10.2 µM
66 | O=S(=O)(c1ccccc1)N1CCN(c2nc(-c3cccnc3)nc3ccccc23)CC1 | 51.6 µM (inactive)

Row | SMILES | IC50
67 | COC(=O)c1ccc(N)c(N=CC2=C(O)CC(C)(C)CC2=O)c1 | > 79 µM (inactive)
68 | C=CCn1cnc2c(c1=O)c1nc3ccccc3nc1n2/N=C/c1cc(OC)c(OC)c(OC)c1 | 5.93 µM
69 | COc1ccc(C(C(=O)NCc2ccccc2)N(Cc2ccco2)C(=O)c2snc(C(N)=O)c2N)cc1 (stereo not drawn) | 39.5 µM (inactive)
70 | Cc1ccc(C(C(=O)NCc2ccccc2)N(Cc2ccco2)C(=O)c2snc(C(N)=O)c2N)o1 (stereo not drawn) | 23.9 µM (inactive)
71 | COc1ccc(/C=N/NC(=O)c2ccc(COc3cccc4cccnc34)cc2)cc1OC | > 79 µM (inactive)
72 | COc1cccc(-c2cnc3c(NC=O)cc(-c4cc(C)c(O)c(C)c4)cn23)c1 | > 79 µM (inactive)
73 | COc1ccccc1N1CCN(C(=O)c2ccc3nc(-c4ccco4)c(-c4ccco4)nc3c2)CC1 | 16.4 µM
74 | COc1cc(/C=C/c2nnc3c4ccccc4ncn23)cc(OC)c1OC | 31.9 µM (inactive)
75 | COc1ccc(CCNc2nc(-c3cccnc3)nc3ccccc23)cc1OC | 55 µM (inactive)
76 | c1ccc(-c2nc(-n3ccnc3)nc(-n3ccnc3)n2)cc1 | 38 µM (inactive)
77 | CCN1C(=O)/C(=C/c2nc3ccccc3c(=O)[nH]2)c2ccccc21 | > 79 µM (inactive)
78 | CCOC(=O)C1CCN(c2cc3c(cc2NC(=O)c2ccccc2Cl)n(C)c(=O)n3C)CC1 | > 79 µM (inactive)
79 | CC(=O)c1ccc(-c2cnc3c(NC=O)cc(-c4ccc(C(=O)NC5CC5)cc4)cn23)cc1 | 20 µM (inactive)
80 | COc1ccc(C(=O)O/N=C(/c2ccccc2)c2ccncc2)cc1OC | > 79 µM (inactive)
81 | Cc1nc(N2CCN(c3ccccn3)CC2)c2c(C)c(C(=O)Nc3ccc(F)cc3)sc2n1 | > 79 µM (inactive)
82 | O=[N+]([O-])c1ccc(Nc2nc(N/N=C/c3cccc(F)c3)nc(N3CCCC3)n2)cc1 | > 79 µM (inactive)
83 | COc1ccc(N(CC(=O)Nc2cccc(C(C)=O)c2)S(=O)(=O)c2ccc(NC(C)=O)cc2)cc1 | > 79 µM (inactive)
84 | CCOc1ccc(C(C(=O)NCC2CCCO2)N(C(=O)c2snc(C(N)=O)c2N)c2ccccc2F)cc1 (stereo not drawn) | 44.3 µM (inactive)
85 | COc1cc(/C=N/NC(=O)NC23CC4CC(CC(C4)C2)C3)ccc1OCC(N)=O | > 79 µM (inactive)
86 | COc1ccc(-c2cc(-c3nnc(COC(=O)c4ccncc4)o3)c3ccccc3n2)cc1OC | 24.7 µM (inactive)
87 | CCc1nc2ccc(C(=O)Nc3cc(-c4ccccc4)ccc3OC)cn2c1N(C)Cc1nccs1 | > 79 µM (inactive)
88 | COc1ccc(C(=O)Nc2cccc(/C(C)=N/NC(=O)c3ccc([N+](=O)[O-])c(C)c3)c2)cc1OC | 5.18 µM
